Assay [1] has as its system Mus musculus. Description: Antiinflammatory activity in C3H mouse model of thioglycollate-induced lymphocyte recruitment assessed as decrease in blood lymphocytes at 30 mg/kg, po dosed 15 mins before thioglycollate stimulation by Beckman Coulter counting based cell counting method relative to untreated control. Type of assay: functional. On the set-up: scale not given: the % may be the effect or the level left.

Assay [2] relates to Mus musculus. Kind of assay: Antiinflammatory activity in C3H mouse model of thioglycollate-induced lymphocyte recruitment assessed as decrease in blood neutrophils at 30 mg/kg, po dosed 15 mins before thioglycollate stimulation by Beckman Coulter counting based cell counting method relative to untreated control. Further details: scale not given: the % may be the effect or the level left. Type of assay: functional.

The test system of assay [3] is Mus musculus. Description: Antiinflammatory activity in C3H mouse model of thioglycollate-induced lymphocyte recruitment assessed as decrease in blood macrophages at 30 mg/kg, po dosed 15 mins before thioglycollate stimulation by Beckman Coulter counting based cell counting method relative to untreated control. On the set-up: scale not given: the % may be the effect or the level left. Format: functional.

Assay [4] deals with Mus musculus. Description: Reduction in splenomegaly in Balb/c mouse model of dextran sodium sulfate-induced ulcerative colitis at 100 mg/kg, po dosed twice daily at days 3,4, 5 and 6 after the induction of the ulcerative colitis and measured 7 days post ulcerative colitis induction. Further details: scale not given: the % may be the effect or the level left. Type of assay: functional.

The test system of assay [5] is Mus musculus. Description: Reduction in colon weight in Balb/c mouse model of dextran sodium sulfate-induced ulcerative colitis at 30 mg/kg, po dosed twice daily at days 3,4, 5 and 6 after the induction of the ulcerative colitis and measured 7 days post ulcerative colitis induction. Type of assay: functional. Further details: scale not given: the % may be the effect or the level left.

Assay [6] deals with Mus musculus. Description: Reduction in colon weight in Balb/c mouse model of dextran sodium sulfate-induced ulcerative colitis at 10 mg/kg, po dosed twice daily at days 3,4, 5 and 6 after the induction of the ulcerative colitis and measured 7 days post ulcerative colitis induction. Format: functional. On the set-up: scale not given: the % may be the effect or the level left.

The subject of assay [7] is Mus musculus. Description: Reduction in splenomegaly in Balb/c mouse model of dextran sodium sulfate-induced ulcerative colitis at 30 mg/kg, po dosed twice daily at days 3,4, 5 and 6 after the induction of the ulcerative colitis and measured 7 days post ulcerative colitis induction. Format: functional. Further details: scale not given: the % may be the effect or the level left.

Assay [8] has as its system Mus musculus. Kind of assay: Reduction in body weight loss in Balb/c mouse model of dextran sodium sulfate-induced ulcerative colitis at 10 to 100 mg/kg, po dosed twice daily at days 3,4, 5 and 6 after the induction of the ulcerative colitis and measured 7 days post ulcerative colitis induction. Type of assay: functional, organism-based.
Assay [9] concerns Mus musculus. Description: Reduction in colon weight in Balb/c mouse model of dextran sodium sulfate-induced ulcerative colitis at 100 mg/kg, po dosed twice daily at days 3,4, 5 and 6 after the induction of the ulcerative colitis and measured 7 days post ulcerative colitis induction. Type of assay: functional. On the set-up: scale not given: the % may be the effect or the level left.

Active and inactive are the calls of the source. The calls are words filed in the database; no cut-off is given here.

For `CCCCCCN(Cc1ccc(C#Cc2ccc(C(C)(C)C)cc2)cc1)c1ccc(F)c(C(=O)O)c1`, the Activity in [1] came to 13%; in assay [2] it was 36%; in assay [3] it was 42%.

For the compound `CCCCCCN(Cc1ccc(C#Cc2ccc(CCCC)cc2)cc1)C(=O)c1ccc(O)c(C(=O)O)c1`, the Activity in assay [1] came out at 41%; in assay [2] it was 41%; in [3], 62%.

`CCCCCCN(Cc1ccc(C#Cc2ccc(CCC)cc2)cc1)c1ccc(F)c(C(=O)O)c1`: the figures for the Activity in assay [1], in [2] and in assay [3] were 4%, -6% and 26%, respectively.

Turning to `CCCCCCc1ccc(C#Cc2ccc(N(Cc3ccc(C(F)(F)F)cc3)C(=O)C(=O)O)cc2)cc1`, the figures for the Activity in assay [1], in assay [2] and in [3] were 21%, 15% and 32%, respectively.

On to `O=C(O)C(=O)N(Cc1ccc(C#CCCCCCCCCCF)cc1)Cc1ccc(C(F)(F)F)cc1`, for which the Activity in [1] worked out at 24%; in assay [2], 16%; in [3], 36%.

For `CCCCCCN(Cc1ccccc1C#Cc1ccc(CCCC)cc1)C(=O)c1ccc(O)c(C(=O)O)c1`, the Activity was -45% in assay [4], -50% in [5], -47% in assay [6] and -25% in [7]. Moreover, in assay [8], the result was Active.

For the compound `CCCCCCN(Cc1ccc(F)c(C(=O)O)c1)c1ccc(C#Cc2ccc(CCCC)cc2)cc1`, the results for the Activity in assay [1], in assay [2] and in [3] were 8%, 28% and 32%, respectively.

As to `CCCCCCN(Cc1ccc(C#Cc2ccc(CCCC)cc2)cc1)c1ccc(C(=O)O)c(O)c1`, the values for the Activity in assay [1], in [2] and in [3] were 23%, 45% and 65%, respectively.

Regarding `CCCCCCc1ccc(C#Cc2ccc(CN(C(=O)C(=O)O)C(C)(C)c3cccc(Cl)c3)cc2)cc1`, the Activity in assay [1] is listed as 39%; in [2], 25%; in assay [3], 52%.

On to `CCCCCCc1ccc(C#Cc2ccc(CN(Cc3ccc(C(F)(F)F)cc3)C(=O)C(=O)O)cc2)cc1`, for which the Activity in assay [1] is 29%; in [2], 27%; in [3] it was 27%.

Take `CCCCCCN(Cc1ccc(C#Cc2ccc(CCCC)cc2)cc1)c1ccc(O)c(C(=O)O)c1`: the Activity was -65% in assay [4]; 47% in assay [1]; 44% in assay [2]; 50% in [3]; -28% in assay [5]; -35% in assay [9]. The Activity in assay [6] is recorded as -22%; in assay [7], -31%.

In the case of `CCCCc1ccc(C#Cc2ccc(CN(CC3CCCC3)c3ccc(F)c(C(=O)O)c3)cc2)cc1`, the Activity in assay [1] was 23%; in assay [2], 36%; in [3], 37%.

The values are drawn from ChEMBL document CHEMBL3991941, “GLEPP-1 inhibitors in the treatment of autoimmune and/or inflammatory disorders” (2011).
